Experimental data: ChEMBL document CHEMBL5244253, “Recent research progress on natural small molecule bibenzyls and its derivatives in Dendrobium species” (Eur J Med Chem, 2020)

Assays:
HL-60 = experiment: Anti-cancer activity against human HL-60 cells; format: functional, cell-based
PC-12 [1] = experiment: Neurotrophic activity in rat PC-12 cells assessed as induction of NGF-mediated neurite outgrowth at 10 uM measured after 72 hrs relative to control; format: functional
PC-12 [2] = experiment: Neuroprotection against Amyloid beta (25 to 35)-induced toxicity in rat PC-12 cells assessed as increase in cell viability at 10 uM for 24 hrs by MTT assay relative to control; format: functional
PC-12 [3] = experiment: Neuroprotection against Amyloid beta (25 to 35)-induced toxicity in rat PC-12 cells assessed as increase in cell viability at 25 uM for 24 hrs by MTT assay relative to control; format: functional
PC-12 [4] = experiment: Neuroprotection against Amyloid beta (25 to 35)-induced toxicity in rat PC-12 cells assessed as increase in cell viability at 50 uM for 24 hrs by MTT assay relative to control; format: functional
[5] = Antioxidant activity assessed as DPPH radical scavenging activity incubated for 30 mins by spectrophotometric analysis; format: functional
K562 = experiment: Anti-cancer activity against human K562 cells; format: functional, cell-based
Bel-7402 = experiment: Anti-cancer activity against human Bel-7402 cells; format: functional, cell-based
[6] = target: Nitric oxide synthase, inducible (Homo sapiens, UniProt P35228); experiment: Inhibition of iNOS (unknown origin)
[7] = target: Aldo-keto reductase family 1 member B1 (Homo sapiens, UniProt P15121); experiment: Inhibition of aldose reductase (unknown origin) using DL-glyceraldehyde as substrate
RAW264.7 = experiment: Antiinflammatory activity in mouse RAW264.7 cells assessed as inhibition of LPS-induced NO production at 25 uM measured after 24 hrs; format: functional
T-24 = experiment: Anti-cancer activity against human T24 cells; format: functional, cell-based
THP-1 = experiment: Anti-cancer activity against human THP-1 cells; format: functional, cell-based
[8] = target: Tyrosine-protein phosphatase non-receptor type 1 (Homo sapiens, UniProt P18031); experiment: Inhibition of PTP1B (unknown origin)
[9] = Permeability of the compound by PAMPA-BBB assay; format: ADME; settings: read-out: permeability
NCI-H292 = experiment: Anti-cancer activity against human NCI-H292 cells; format: functional, cell-based
[10] = Antioxidant activity assessed as DPPH radical scavenging activity at 100 ug/ml incubated for 30 mins by spectrophotometric analysis; format: functional; settings: dose 100.0 µg/ml
NCI-H23 = experiment: Anti-cancer activity against human NCI-H23 cells; format: functional, cell-based
MDA-MB-231 = experiment: Cytotoxicity against human MDA-MB-231 cells assessed as cell viability incubated for 72 hrs by MTT assay; format: functional, cell-based; settings: MDA-MB-231, 72 h
HT-29 = experiment: Cytotoxicity against human HT-29 cells assessed as cell viability incubated for 72 hrs by MTT assay; format: functional, cell-based; settings: HT-29, 72 h
HepG2 = experiment: Cytotoxicity against human HepG2 cells assessed as cell viability incubated for 72 hrs by MTT assay; format: functional, cell-based; settings: HepG2, 72 h
SGC-7901 = experiment: Anti-cancer activity against human SGC-7901 cells; format: functional, cell-based

Nitric oxide synthase, inducible, sequence (P35228 whole entry): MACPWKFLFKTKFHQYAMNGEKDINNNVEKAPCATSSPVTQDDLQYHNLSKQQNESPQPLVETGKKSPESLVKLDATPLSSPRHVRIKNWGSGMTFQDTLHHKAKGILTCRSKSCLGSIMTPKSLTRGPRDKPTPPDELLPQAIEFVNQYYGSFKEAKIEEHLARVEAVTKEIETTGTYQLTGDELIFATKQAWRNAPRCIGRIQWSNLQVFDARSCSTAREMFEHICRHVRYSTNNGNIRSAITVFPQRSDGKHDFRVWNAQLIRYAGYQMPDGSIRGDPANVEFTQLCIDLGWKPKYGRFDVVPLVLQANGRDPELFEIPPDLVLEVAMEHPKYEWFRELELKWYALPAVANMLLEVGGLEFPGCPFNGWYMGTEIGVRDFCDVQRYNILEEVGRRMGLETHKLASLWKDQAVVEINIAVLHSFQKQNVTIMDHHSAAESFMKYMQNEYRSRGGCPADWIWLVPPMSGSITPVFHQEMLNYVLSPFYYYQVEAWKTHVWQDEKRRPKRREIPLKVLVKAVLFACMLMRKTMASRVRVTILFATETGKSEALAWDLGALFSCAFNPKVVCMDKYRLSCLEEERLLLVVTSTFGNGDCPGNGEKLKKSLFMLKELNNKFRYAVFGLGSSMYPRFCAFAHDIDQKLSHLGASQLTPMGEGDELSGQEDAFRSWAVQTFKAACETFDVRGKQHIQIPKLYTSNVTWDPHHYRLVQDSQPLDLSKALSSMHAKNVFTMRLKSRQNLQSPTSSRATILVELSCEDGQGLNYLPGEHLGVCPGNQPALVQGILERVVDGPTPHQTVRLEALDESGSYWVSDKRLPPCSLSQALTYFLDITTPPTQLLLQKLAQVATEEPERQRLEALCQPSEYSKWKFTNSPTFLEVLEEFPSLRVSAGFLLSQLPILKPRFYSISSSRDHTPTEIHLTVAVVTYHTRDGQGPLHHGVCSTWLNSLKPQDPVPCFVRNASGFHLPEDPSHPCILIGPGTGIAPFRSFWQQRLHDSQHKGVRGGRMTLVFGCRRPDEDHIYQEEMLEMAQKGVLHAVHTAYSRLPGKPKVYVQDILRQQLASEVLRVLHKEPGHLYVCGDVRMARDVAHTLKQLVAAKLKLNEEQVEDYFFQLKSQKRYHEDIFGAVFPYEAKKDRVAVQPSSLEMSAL
Tyrosine-protein phosphatase non-receptor type 1, sequence (P18031 whole entry): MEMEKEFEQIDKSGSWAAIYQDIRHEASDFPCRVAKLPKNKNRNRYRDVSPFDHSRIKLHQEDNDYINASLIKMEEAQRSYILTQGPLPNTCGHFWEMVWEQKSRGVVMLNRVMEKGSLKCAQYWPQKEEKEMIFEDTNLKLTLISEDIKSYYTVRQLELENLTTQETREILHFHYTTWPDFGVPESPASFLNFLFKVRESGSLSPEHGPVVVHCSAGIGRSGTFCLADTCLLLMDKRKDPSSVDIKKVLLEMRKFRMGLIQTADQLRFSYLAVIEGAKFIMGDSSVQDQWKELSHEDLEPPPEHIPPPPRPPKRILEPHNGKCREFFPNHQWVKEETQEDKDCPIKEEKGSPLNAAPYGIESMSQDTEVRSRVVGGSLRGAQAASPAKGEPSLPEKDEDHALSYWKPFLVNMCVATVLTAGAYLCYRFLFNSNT

SMILES | Activity (PC-12 [2]) [%] | Activity (PC-12 [3]) [%] | Activity (PC-12 [4]) [%] | other results
COc1cc(O)cc(CCc2ccc(O)cc2)c1 | – | – | – | IC50 (HL-60): 25.6 µM; Activity (PC-12 [1]): 12.08%
CCCC(CCC)C(=O)Oc1c(OC)cc(CCc2ccc(OC)c(OC)c2)cc1OC | 50.11 | 55.21 | 60.02 | –
COc1cc([C@H](Cc2ccc(O)cc2)OC)cc(O)c1O | – | – | – | IC50 [5]: 34.2 µM
COc1cc2c(c(OC)c1O)-c1c(OC)cc(CCc3cccc(O)c3)cc1O[C@H]2[C@H](O)CO | – | – | – | IC50 (K562): 10.3 µM; IC50 (Bel-7402): 10 µM
CCOc1c(OC)cc(CCc2ccc(OC)c(OC)c2)cc1OC | 53.84 | 50.92 | 46.15 | –
COc1ccc(CCc2cc(OC)c(OCCC(C)C)c(OC)c2)cc1OC | 50.21 | 50.16 | 49.48 | –
COc1cc(O)cc(CCc2ccc(O)c(O)c2)c1 | – | – | – | IC50 [6]: 680 µM; IC50 [7]: 176 µM
COc1cc(C[C@H](O)c2cc(O)cc(O)c2)ccc1O | – | – | – | inhibition at 25 µM (RAW264.7): 15%
COc1ccc(CC2c3cc(O)cc(CCc4ccc(O)cc4)c3Oc3c2cc(O)c(OC)c3O)cc1 (stereo not given) | – | – | – | IC50 (HL-60): 2.1 µM
COc1ccc(CCc2cc(OC)c(OC)c(OC)c2)cc1O | – | – | – | IC50 (T-24): 0.46 µM
COc1cc([C@@H]2Oc3cc(CCc4ccc(O)cc4)cc(OC)c3O[C@H]2CO)cc(OC)c1O | – | – | – | Activity (PC-12 [1]): 9.46%
COc1cc(CCc2cc(O)cc(O)c2)ccc1O [TRISTIN] | – | – | – | IC50 (HL-60): 29.1 µM; IC50 (THP-1): 13.5 µM; IC50 [8]: 21.2 µM; inhibition at 25 µM (RAW264.7): 27.2%
COc1cc(CCc2ccc(O)c(O)c2)cc(O)c1O | – | – | – | IC50 [5]: 15.6 µM
CC(C)c1ccc(CCc2cc(O)cc(O)c2)cc1 | – | – | – | IC50 [7]: 513 µM
COc1ccc(CCc2cc(OC)c(OC3CCCC3)c(OC)c2)cc1OC | 54.77 | 61.02 | 72.64 | Papp [9]: 7.6 ×10⁻⁶ cm/s
COc1cccc(CCc2cc(O)c(O)c(OC)c2)c1 | – | – | – | IC50 [5]: 40.3 µM
COc1cc(CCc2ccc(O)cc2)cc(OC)c1O | – | – | – | IC50 (NCI-H292): 198 µM; Activity (PC-12 [1]): 6.94%
COc1ccc(CCc2cc(O)c(OC)c3c2Oc2c(cc(O)c(OC)c2O)C3Cc2ccc(OC)cc2)cc1 (stereo not given) | – | – | – | IC50 (HL-60): 6.4 µM
CCCC(=O)Oc1c(OC)cc(CCc2ccc(OC)c(OC)c2)cc1OC | 54.89 | 50.12 | 49.37 | –
Oc1cc(O)cc(CCc2ccc3c(c2)OCO3)c1 | – | – | – | inhibition at 25 µM (RAW264.7): 22.1%; inhibition [10]: 88%

SMILES | Activity (PC-12 [2]) [%] | Activity (PC-12 [3]) [%] | Activity (PC-12 [4]) [%] | other results
COc1cc(CCc2cc(OC)c(OC)c(OC)c2)ccc1O | – | – | – | IC50 (NCI-H23): 158 µM; IC50 [5]: 21.8 µM
CCCCC(CC)Oc1c(OC)cc(CCc2ccc(OC)c(OC)c2)cc1OC (stereo not given) | 51.03 | 54.78 | 58.88 | –
COc1ccc(CCc2cc(OC)c(OC(=O)CCC(C)C)c(OC)c2)cc1OC | 49.83 | 50.4 | 49.57 | –
Oc1cc(O)cc(CCc2ccc(F)cc2)c1 | – | – | – | IC50 [7]: 566 µM
COc1ccc(CCc2cc(OC)c(OC(=O)C(C)C)c(OC)c2)cc1OC | 49.34 | 47.33 | 45.91 | –
COc1ccc(CCc2cc(OC)c(OC(=O)c3ccccn3)c(OC)c2)cc1OC | 52.97 | 50.1 | 54.6 | –
COc1ccc(CCc2cc(OC)c(OC(=O)c3ccncc3)c(OC)c2)cc1OC | 53.53 | 50.71 | 46.56 | –
COc1cc(CCc2cc(OC)c3c(c2)O[C@@H](c2cc(OC)c(O)c(OC)c2)[C@H](CO)O3)ccc1O | – | – | – | Activity (PC-12 [1]): 7.86%
CCO[C@@H](Cc1ccc(O)cc1)c1cc(O)c(O)c(OC)c1 | – | – | – | IC50 [5]: 34.5 µM
CCCCOc1c(OC)cc(CCc2ccc(OC)c(OC)c2)cc1OC | 51.79 | 52.03 | 53.44 | –
COc1cc(O)cc(CCc2cccc(O)c2)c1 [BATATASIN III] | – | – | – | Activity (PC-12 [1]): 8.2%; inhibition at 25 µM (RAW264.7): 21.6%; inhibition [10]: 36.3%
Oc1ccc(CCc2cc(Cl)ccc2O)cc1O | – | – | – | IC50 [7]: 21.8 µM
COc1ccc(CC2c3cc(O)c(O)c(OC)c3Oc3cc(O)c4c(c32)CCc2cc(O)ccc2-4)cc1 (stereo not given) | – | – | – | IC50 (MDA-MB-231): 25.2 µM; IC50 (HT-29): 30.4 µM; IC50 (HepG2): 51.3 µM
COc1ccc(CCc2cc(OC)c(OC(=O)c3ccccc3)c(OC)c2)cc1OC | 58.18 | 80.12 | 100.78 | Papp [9]: 6.9 ×10⁻⁶ cm/s
COc1ccc(CCc2cc(OC)c(OC(=O)c3ccc(Cl)cc3)c(OC)c2)cc1OC | 56.41 | 69.24 | 95.62 | Papp [9]: 6.2 ×10⁻⁶ cm/s
COc1cc(CCc2cccc(O)c2)cc(OC)c1O | – | – | – | IC50 (HL-60): 4.48 µM; IC50 (SGC-7901): 12.8 µM
COc1cc(CCc2cc(O)c(OC)c(OC)c2)ccc1O | – | – | – | IC50 (SGC-7901): 16.7 µM
COc1cccc(CCc2ccc(O)c(O)c2)c1O | – | – | – | IC50 [6]: 434 µM; IC50 [7]: 126 µM
COc1ccc(CCc2cc(OC)c(OC(=O)CCc3ccccc3)c(OC)c2)cc1OC | 54 | 50.22 | 49.84 | –
COc1cc(CCc2ccc(O)c(O)c2)cc(OC)c1O | – | – | – | IC50 [7]: 17.8 µM

SMILES | Activity (PC-12 [2]) [%] | Activity (PC-12 [3]) [%] | Activity (PC-12 [4]) [%] | other results
COc1cc(CC(O)c2cc(OC)c(O)c(OC)c2)ccc1O (stereo not given) [NOBILIN D] | – | – | – | IC50 [5]: 19.9 µM
COc1ccc(CCc2cc(OC)c(OCc3ccccc3)c(OC)c2)cc1OC | 58.22 | 60.89 | 71 | Papp [9]: 8.2 ×10⁻⁶ cm/s
COC1=CC(O)(CCc2ccc(O)c(OC)c2)C=C(OC)C1=O | – | – | – | inhibition at 25 µM (RAW264.7): 19.7%; inhibition [10]: 35.3%
CCCOc1c(OC)cc(CCc2ccc(OC)c(OC)c2)cc1OC | 49.21 | 49.11 | 48.81 | –
CCC(C)Oc1c(OC)cc(CCc2ccc(OC)c(OC)c2)cc1OC (stereo not given) | 49.02 | 49.73 | 48.75 | –
CCCCC(C)Oc1c(OC)cc(CCc2ccc(OC)c(OC)c2)cc1OC (stereo not given) | 50.67 | 50.25 | 52.18 | –
CCCCC(=O)Oc1c(OC)cc(CCc2ccc(OC)c(OC)c2)cc1OC | 49.73 | 41.9 | 48.63 | –
COc1ccc(CCc2cc(OC)c(O)c3c2C(Cc2ccc(O)cc2)c2cc(O)c(O)c(OC)c2O3)cc1 (stereo not given) | – | – | – | IC50 [5]: 32.4 µM
COc1cc(CCc2cc(O)c(O)c(OC)c2)ccc1O | – | – | – | IC50 (NCI-H292): 96.6 µM
COc1cc(CCc2ccc(O)c(O)c2)cc(OC)c1 | – | – | – | IC50 [7]: 39.2 µM
O=C1O[C@H]([C@@H](O)CO)C(O)=C1O [ASCORBIC ACID] | – | – | – | IC50 [5]: 23.2 µM
COc1ccc(CCc2cc(OC)c(OCC(C)C)c(OC)c2)cc1OC | 54.53 | 50.12 | 49.89 | –
COc1ccc(CCc2cc(OC)c3c(c2)O[C@H](c2cc(O)c(O)c(OC)c2)[C@@H](c2ccc(OC)cc2)O3)cc1 | – | – | – | IC50 (MDA-MB-231): 42.5 µM; IC50 [5]: 21.3 µM; IC50 (HT-29): 52 µM; IC50 (HepG2): 89.7 µM
CCC(=O)Oc1c(OC)cc(CCc2ccc(OC)c(OC)c2)cc1OC | 45.31 | 44.21 | 44.4 | –
COc1cc(CCc2cccc(O)c2)cc(O)c1OC | – | – | – | IC50 (K562): 15.7 µM; IC50 (Bel-7402): 11.7 µM; IC50 (SGC-7901): 7.8 µM
COc1ccc(CC2C3=C(Cc4c2cc(O)c(O)c4OC)C(=O)c2cc(O)c4cc(O)ccc4c2C3=O)cc1 (stereo not given) | – | – | – | IC50 [5]: 19.8 µM
Oc1ccc(CCc2ccc(O)c(O)c2)cc1O | – | – | – | IC50 [7]: 534 µM
COc1ccc(CCc2cc(OC)c(OC)c(OC)c2)cc1OC | – | – | – | IC50 (NCI-H23): 252 µM
